From ChEMBL document CHEMBL3297700, “Dose-dependent inhibition of BACE-1 by the monoterpenoid 2,3,4,4-tetramethyl-5-methylenecyclopent-2-enone in cellular and mouse models of Alzheimer's disease” (J Nat Prod, 2014)
Several values for one entry are separate records, joined by “and”; a condition that tells them apart may be missing. Equal values may be shown once.

What was measured:
Beta-secretase 1 [1] = biological target: T1, Beta-secretase 1 (Homo sapiens, UniProt P56817); test: Inhibition of recombinant BACE-1 (unknown origin) expressed in Escherichia coli measured for 5 to 30 mins by spectrofluorometric analysis; settings: read-out: Ki(app)
T1 sequence (P56817 whole entry): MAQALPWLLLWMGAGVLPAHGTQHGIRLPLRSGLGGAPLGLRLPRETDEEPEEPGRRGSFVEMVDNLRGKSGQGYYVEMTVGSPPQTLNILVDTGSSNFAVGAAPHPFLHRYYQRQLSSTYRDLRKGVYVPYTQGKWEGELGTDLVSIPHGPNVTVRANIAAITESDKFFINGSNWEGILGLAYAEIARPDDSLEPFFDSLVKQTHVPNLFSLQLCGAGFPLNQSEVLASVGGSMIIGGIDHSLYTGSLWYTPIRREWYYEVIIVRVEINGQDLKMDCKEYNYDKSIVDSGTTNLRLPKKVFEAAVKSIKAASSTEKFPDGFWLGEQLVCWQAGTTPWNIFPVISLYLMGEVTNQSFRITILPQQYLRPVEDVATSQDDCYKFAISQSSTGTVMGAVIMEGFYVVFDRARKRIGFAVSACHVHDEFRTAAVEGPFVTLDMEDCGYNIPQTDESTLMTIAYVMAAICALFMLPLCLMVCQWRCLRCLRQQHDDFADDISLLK

Cathepsin D = Cathepsin D (Homo sapiens, UniProt P07339); test: Inhibition of cathepsin D in human liver using Lys-Lys-Pro-Ala-Glu-Phe-Phe-Ala-Leu-Lys as substrate by spectrofluorometric analysis; settings: read-out: Ki(app)
Cathepsin D, sequence (P07339 65-162 limits assumed): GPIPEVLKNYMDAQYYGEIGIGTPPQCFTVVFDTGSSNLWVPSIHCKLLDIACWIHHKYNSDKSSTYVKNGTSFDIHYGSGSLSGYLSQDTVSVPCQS
Cathepsin D, sequence (P07339 169-412 limits assumed): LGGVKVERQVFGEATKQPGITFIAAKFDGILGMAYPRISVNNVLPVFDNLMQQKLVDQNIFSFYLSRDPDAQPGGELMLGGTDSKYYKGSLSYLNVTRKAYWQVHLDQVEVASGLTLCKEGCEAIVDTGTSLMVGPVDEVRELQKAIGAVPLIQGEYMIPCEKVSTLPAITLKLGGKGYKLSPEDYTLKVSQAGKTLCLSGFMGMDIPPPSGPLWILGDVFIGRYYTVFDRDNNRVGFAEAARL

Beta-secretase 1 [2] = biological target: Beta-secretase 1 (Cricetulus griseus, UniProt G3IAK4); test: Inhibition of BACE-1 in CHO cells expressing wild-type APP assessed as reduction in amyloid beta-40 production after 6 hrs by sandwich ELISA
Beta-secretase 1 (Cricetulus griseus, UniProt G3IAK4), sequence (G3IAK4 whole entry): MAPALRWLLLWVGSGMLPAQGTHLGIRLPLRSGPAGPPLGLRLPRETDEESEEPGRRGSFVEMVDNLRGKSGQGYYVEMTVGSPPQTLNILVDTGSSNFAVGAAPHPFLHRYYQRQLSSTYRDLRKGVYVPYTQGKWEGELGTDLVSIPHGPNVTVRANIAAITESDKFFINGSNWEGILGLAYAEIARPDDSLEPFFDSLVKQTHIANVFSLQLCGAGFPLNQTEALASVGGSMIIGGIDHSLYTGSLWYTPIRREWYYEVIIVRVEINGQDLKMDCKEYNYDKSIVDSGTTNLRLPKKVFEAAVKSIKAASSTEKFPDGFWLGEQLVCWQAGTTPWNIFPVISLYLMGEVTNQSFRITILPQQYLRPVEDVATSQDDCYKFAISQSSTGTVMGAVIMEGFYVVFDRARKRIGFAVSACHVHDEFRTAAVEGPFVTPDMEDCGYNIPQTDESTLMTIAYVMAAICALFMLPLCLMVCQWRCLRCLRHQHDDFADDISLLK

Beta-secretase 1 [3] = biological target: T1, Beta-secretase 1; test: Inhibition of BACE-1 in human SH-SY5Y cells expressing wild-type APP assessed as reduction in amyloid beta-40 production after 16 hrs by sandwich ELISA
[4] = Cytotoxicity against CHO cells expressing wild-type APP assessed as cell viability at 600 uM by neutral red uptake assay relative to control; type: cell-based, Cricetulus griseus; settings: chinese hamster, read-out: Activity
[5] = Cytotoxicity against human SH-SY5Y cells expressing wild-type APP assessed as cell viability at 600 uM by trypan blue dye exclusion assay relative to control; type: cell-based; settings: read-out: Activity
Mus musculus [6] = test: In vivo inhibition of BACE-1 in triple transgenic mouse model of Alzheimer's disease assessed as reduction in brain soluble amyloid beta-40 level administered intranasally qd for 4 days by ELISA; type: functional, organism-based
Mus musculus [7] = test: Toxicity in triple transgenic mouse model of Alzheimer's disease administered intranasally qd for 4 days; type: organism-based; settings: in vivo, inhaled_or_intranasal, 96 h
Mus musculus [8] = test: In vivo inhibition of BACE-1 in triple transgenic mouse model of Alzheimer's disease assessed as reduction in brain insoluble amyloid beta-40 level administered intranasally qd for 4 days by ELISA; type: functional, organism-based

With `C=C1C(=O)C(C)=C(C)C1(C)C` the Ki (Beta-secretase 1 [1]) was 416 µM, the Ki (Cathepsin D) was 31 µM and 30.8 µM and the EC50 (Beta-secretase 1 [2]) was 73 µM. For the same molecule, the EC50 (Beta-secretase 1 [3]) was 217 µM, the viability at 600 µM [4] was > 90% and the viability at 600 µM [5] was > 90%. For the same molecule, the inhibition (Mus musculus [6]) was “Dose-dependent effect”, the Activity (Mus musculus [7]) was “Non-toxic” and the inhibition (Mus musculus [8]) was “Dose-dependent effect”.
